Measured values published in ChEMBL document CHEMBL1152980, “Identification of enoxacin as an inhibitor of osteoclast formation and bone resorption by structure-based virtual screening” (J Med Chem, 2009).
Activity calls are given as the source filed them. The rule behind the calls is not given here.

Assays:
[1] = (§1) Antiresorptive activity against 1,25-dihydroxyvitamin D3-stimulated osteoclast formation in Swiss Webster mouse bone marrow cells assessed as reduction of tartrate-resistant acid phosphatase activity after 7 days; type: functional, cell-based; settings: Bone marrow cell, 168 h
[2] = tested on: Bone marrow cell; assay: Antiresorptive activity in 1,25-dihydroxyvitamin D3-stimulated Swiss Webster mouse bone marrow cells assessed as reduction in bone pit formation at 10 uM after 5 days; type: functional, cell-based
[3] = Cytotoxicity against mouse MC3T3-E1 cells assessed as change in morphology at 100 uM after 3 days; type: cell-based; settings: mc3t3-e1, 72 h
[4] = molecular target: V-type proton ATPase subunit B (Saccharomyces cerevisiae S288c) (UniProt P16140); assay: Inhibition of Saccharomyces cerevisiae V-ATPase subunit B expressed in Escherichia coli binding to rabbit muscle actin filament at 100 uM by pelleting assay; settings: Muscle tissue
Chain of V-type proton ATPase subunit B (Saccharomyces cerevisiae S288c) (P16140 whole entry): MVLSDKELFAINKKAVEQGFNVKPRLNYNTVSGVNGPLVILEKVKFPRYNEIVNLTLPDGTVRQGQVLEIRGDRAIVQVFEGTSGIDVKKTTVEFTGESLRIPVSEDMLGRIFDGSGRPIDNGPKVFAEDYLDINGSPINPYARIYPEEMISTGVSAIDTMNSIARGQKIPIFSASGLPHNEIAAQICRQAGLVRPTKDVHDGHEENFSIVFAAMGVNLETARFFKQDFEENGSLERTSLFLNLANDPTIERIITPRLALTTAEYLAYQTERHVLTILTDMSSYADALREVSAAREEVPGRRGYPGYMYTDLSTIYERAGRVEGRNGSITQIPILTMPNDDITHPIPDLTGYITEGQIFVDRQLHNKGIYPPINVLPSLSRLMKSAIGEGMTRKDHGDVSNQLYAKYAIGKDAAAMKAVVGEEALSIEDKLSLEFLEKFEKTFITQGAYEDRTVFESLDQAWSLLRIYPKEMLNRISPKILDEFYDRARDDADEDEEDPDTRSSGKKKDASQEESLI

[5] = Reduction in osteoblast formation from mouse MC3T3-E1 cells assessed as alkaline phosphatase activity at 100 uM after 3 days; type: cell-based; settings: mc3t3-e1, 72 h
[6] = tested on: Osteoclast; assay: Antiresorptive activity in 1,25-dihydroxyvitamin D3-stimulated Swiss Webster mouse osteoclast assessed as blockade of actin ring formation on bone slices at 1 uM after 3 days; type: functional, cell-based
[7] = tested on: Bone marrow cell; assay: Antiresorptive activity in 1,25-dihydroxyvitamin D3-stimulated Swiss Webster mouse bone marrow cells assessed as reduction in resorptive area at 25 uM after 5 days; type: functional, cell-based
[8] = molecular target: V-type proton ATPase subunit B, brain isoform (Homo sapiens, UniProt P21281); assay: Inhibition of maltose binding protein-fused human V-ATPase subunit B2 binding to F-actin
Chain of V-type proton ATPase subunit B, brain isoform (P21281 whole entry, the tested form may be a part, canonical isoform): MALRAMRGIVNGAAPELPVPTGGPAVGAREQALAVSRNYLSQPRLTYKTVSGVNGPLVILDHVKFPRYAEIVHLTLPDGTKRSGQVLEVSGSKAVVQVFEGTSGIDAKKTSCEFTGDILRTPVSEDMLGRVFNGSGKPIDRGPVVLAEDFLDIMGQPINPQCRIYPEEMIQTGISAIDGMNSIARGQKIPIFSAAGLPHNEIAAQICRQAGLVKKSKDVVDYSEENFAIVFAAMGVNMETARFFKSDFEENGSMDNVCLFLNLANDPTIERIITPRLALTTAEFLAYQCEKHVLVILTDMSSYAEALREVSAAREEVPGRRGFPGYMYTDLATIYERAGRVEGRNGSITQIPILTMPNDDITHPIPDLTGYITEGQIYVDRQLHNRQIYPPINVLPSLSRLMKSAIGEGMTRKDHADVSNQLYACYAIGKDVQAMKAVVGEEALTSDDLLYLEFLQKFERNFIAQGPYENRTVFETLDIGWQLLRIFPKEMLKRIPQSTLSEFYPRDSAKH

[9] = tested on: Bone marrow cell; assay: Antiresorptive activity in 1,25-dihydroxyvitamin D3-stimulated Swiss Webster mouse bone marrow cells after 5 days; type: functional, cell-based
[10] = tested on: Bone marrow cell; assay: Antiresorptive activity in 1,25-dihydroxyvitamin D3-stimulated Swiss Webster mouse bone marrow cells at 100 uM after 5 days; type: functional, cell-based
[11] = tested on: Osteoclast; assay: Antiresorptive activity in 1,25-dihydroxyvitamin D3-stimulated Swiss Webster mouse osteoclast assessed as blockade of actin ring formation on bone slices at 10 uM after 3 days; type: functional, cell-based
[12] = tested on: Bone marrow cell; assay: as §1; type: functional, cell-based
[13] = tested on: Osteoclast; assay: Antiresorptive activity in 1,25-dihydroxyvitamin D3-stimulated Swiss Webster mouse osteoclast assessed as blockade of actin ring formation on bone slices at 100 uM after 3 days; type: functional, cell-based
[14] = tested on: Osteoclast; assay: Antiresorptive activity in 1,25-dihydroxyvitamin D3-stimulated Swiss Webster mouse osteoclast assessed as blockade of ruffled membrane formation on bone slices at 10 uM after 3 days; type: functional, cell-based
[15] = tested on: Bone marrow cell; assay: Antiresorptive activity in 1,25-dihydroxyvitamin D3-stimulated Swiss Webster mouse bone marrow cells assessed as reduction in bone pit formation at 25 uM after 5 days; type: functional, cell-based
[16] = Reduction in mouse MC3T3-E1 cell growth at 100 uM after 3 days; type: cell-based; settings: mc3t3-e1, 72 h
[17] = tested on: Osteoclast; assay: Antiresorptive activity in 1,25-dihydroxyvitamin D3-stimulated Swiss Webster mouse osteoclast assessed as blockade of ruffled membrane formation on bone slices at 100 uM after 3 days; type: functional, cell-based
[18] = tested on: Osteoclast; assay: Antiresorptive activity in 1,25-dihydroxyvitamin D3-stimulated Swiss Webster mouse osteoclast assessed as blockade of ruffled membrane formation on bone slices at 1 uM after 3 days; type: functional, cell-based

IC50 [1] | inhibition [4] | IC50 [8] | Compound | Activity [2] | Activity [3] | Activity [5] | Activity [6] | Activity [7] | Activity [9] | Activity [10] | Activity [11] | Activity [12] | Activity [13] | Activity [14] | Activity [15] | Activity [16] | Activity [17] | Activity [18]
> 50 µM |  |  | CCn1cc(C(=O)O)c(=O)c2cc(F)c(N3CCN(C)CC3)cc21 [PEFLOXACIN] |  |  |  |  |  |  |  |  |  |  |  |  |  |  | 
 | Active | 10 µM | CCn1cc(C(=O)O)c(=O)c2cc(F)c(N3CCNCC3)nc21 [ENOXACIN] | Active | Toxic | Toxic | inactive | Active | Dose-dependent effect | Active | Active | Dose-dependent effect | Active | Active | Active | Toxic | Active | inactive
